Non-standard residues stand in square brackets, D forms with d. Residues, ends and D or L forms follow the SMILES beside them. Phe(4-Me) = Cc1ccc(C[C@H](N)C(=O)O)cc1
Legend:
Experiment in all cases: GloSensor cAMP assay
Format in all cases: cell-based
[1] = molecular target: T1, ADGRG2-ΔGPS-β V768A (Mus musculus, UniProt Q8CJ12, V782A); settings: mutant V768A; HEK293, cAMP Glosensor
T1 construct: expressed in transfected cells; host or cells: HEK293
Description: (§1) Wildtype ADGRG2 full-length (ADGRG2-FL) was cloned from mouse total cDNA libraries using the following primers: forward, […]; reverse, […], and then ADGRG2-FL, ADGRG2 C-terminal truncation mutant (ADGRG2-β), and ADGRG2-ΔGPS-β (the entire ECD of ADGRG2 was deleted) were subcloned into the pcDNA3.1 expression vector. The ADGRG2-ΔGPS-β mutants (T610A, Y611A, C614A, S661A, W662A, I663A, L665A, Y666A，N667A, F671A, L679A, L683A, I730A, V731A, F741A, F747A, W757A, I758A, N759A, S760A, V762A, F764A, Y765A, V768A, V769A, F772A, V774A, W824A, F826A, F828A, F829A, V834A, V836A, F838A, M839A, I844A, F845A) were generated using a QuikChange Mutagenesis Kit (Stratagene). All mutations were verified by DNA sequencing.
(§2) The Glosensor cAMP assay was performed as described ([6], [39], [40]). HEK293 cells were transfected with the GloSensor plasmid and the desired expression plasmids in 24-well dishes. Twenty-four hours after transfection, the cells were plated on 96-well plates at a cell density of 20,000 cells/well. The cells were maintained in Dulbecco’s modified Eagle’s medium for another 24 h, washed with PBS, and then incubated with 100 μl of solution containing 10% fetal bovine serum, 2% (v/v) GloSensor cAMP reagent, and 88% CO2-independent medium in each well for 2 h. The cAMP signal was examined using a luminescence counter (Mithras LB 940).

[2] = molecular target: T2, ADGRG2-ΔGPS-β V769A (Mus musculus, UniProt Q8CJ12, V783A); settings: mutant V769A; HEK293, cAMP Glosensor
T2 construct: expressed in transfected cells; host or cells: HEK293
Description: as §1, §2

[3] = molecular target: T3, ADGRG2-ΔGPS-β M839A (Mus musculus, UniProt Q8CJ12, M853A); settings: mutant M839A; HEK293, cAMP Glosensor
T3 construct: expressed in transfected cells; host or cells: HEK293
Description: as §1, §2

[4] = molecular target: T4, ADGRG2-ΔGPS-β F829A (Mus musculus, UniProt Q8CJ12, F843A); settings: mutant F829A; HEK293, cAMP Glosensor
T4 construct: expressed in transfected cells; host or cells: HEK293
Description: as §1, §2

[5] = molecular target: T5, ADGRG2-ΔGPS-β F845A (Mus musculus, UniProt Q8CJ12, F859A); settings: mutant F845A; HEK293, cAMP Glosensor
T5 construct: expressed in transfected cells; host or cells: HEK293
Description: as §1, §2

[6] = molecular target: T6, ADGRG2-ΔGPS-β F671A (Mus musculus, UniProt Q8CJ12, F685A); settings: mutant F671A; HEK293, cAMP Glosensor
T6 construct: expressed in transfected cells; host or cells: HEK293
Description: as §1, §2

[7] = molecular target: T7, ADGRG2-ΔGPS-β C614A (Mus musculus, UniProt Q8CJ12, C628A); settings: mutant C614A; HEK293, cAMP Glosensor
T7 construct: expressed in transfected cells; host or cells: HEK293
Description: as §1, §2

[8] = molecular target: T8, ADGRG2-ΔGPS-β L679A (Mus musculus, UniProt Q8CJ12, L693A); settings: mutant L679A; HEK293, cAMP Glosensor
T8 construct: expressed in transfected cells; host or cells: HEK293
Description: as §1, §2

[9] = molecular target: T9, ADGRG2-ΔGPS-β V834A (Mus musculus, UniProt Q8CJ12, V848A); settings: mutant V834A; HEK293, cAMP Glosensor
T9 construct: expressed in transfected cells; host or cells: HEK293
Description: as §1, §2

[10] = molecular target: T10, ADGRG2-ΔGPS-β V836A (Mus musculus, UniProt Q8CJ12, V850A); settings: mutant V836A; HEK293, cAMP Glosensor
T10 construct: expressed in transfected cells; host or cells: HEK293
Description: as §1, §2

[11] = molecular target: T11, ADGRG2-ΔGPS-β N759A (Mus musculus, UniProt Q8CJ12, N773A); settings: mutant N759A; HEK293, cAMP Glosensor
T11 construct: expressed in transfected cells; host or cells: HEK293
Description: as §1, §2

[12] = molecular target: T12, ADGRG2-ΔGPS-β S760A (Mus musculus, UniProt Q8CJ12, S774A); settings: mutant S760A; HEK293, cAMP Glosensor
T12 construct: expressed in transfected cells; host or cells: HEK293
Description: as §1, §2

[13] = molecular target: T13, ADGRG2-ΔGPS-β Y765A (Mus musculus, UniProt Q8CJ12, Y779A); settings: mutant Y765A; HEK293, cAMP Glosensor
T13 construct: expressed in transfected cells; host or cells: HEK293
Description: as §1, §2

[14] = molecular target: T14, ADGRG2-ΔGPS-β I844A (Mus musculus, UniProt Q8CJ12, I858A); settings: mutant I844A; HEK293, cAMP Glosensor
T14 construct: expressed in transfected cells; host or cells: HEK293
Description: as §1, §2

[15] = molecular target: T15, ADGRG2-ΔGPS-β W757A (Mus musculus, UniProt Q8CJ12, W771A); settings: mutant W757A; HEK293, cAMP Glosensor
T15 construct: expressed in transfected cells; host or cells: HEK293
Description: as §1, §2

[16] = molecular target: T16, ADGRG2-ΔGPS-β I741A (Mus musculus, UniProt Q8CJ12, I755A); settings: mutant I741A; HEK293, cAMP Glosensor
T16 construct: expressed in transfected cells; host or cells: HEK293
Description: as §1, §2

[17] = molecular target: T17, ADGRG2-ΔGPS-β F772A (Mus musculus, UniProt Q8CJ12, F786A); settings: mutant F772A; HEK293, cAMP Glosensor
T17 construct: expressed in transfected cells; host or cells: HEK293
Description: as §1, §2

[18] = molecular target: T18, ADGRG2-ΔGPS-β V762A (Mus musculus, UniProt Q8CJ12, V776A); settings: mutant V762A; HEK293, cAMP Glosensor
T18 construct: expressed in transfected cells; host or cells: HEK293
Description: as §1, §2

[19] = molecular target: T19, ADGRG2-ΔGPS-β F747A (Mus musculus, UniProt Q8CJ12, F761A); settings: mutant F747A; HEK293, cAMP Glosensor
T19 construct: expressed in transfected cells; host or cells: HEK293
Description: as §1, §2

[20] = molecular target: T20, ADGRG2-ΔGPS-β L665A (Mus musculus, UniProt Q8CJ12, L679A); settings: mutant L665A; HEK293, cAMP Glosensor
T20 construct: expressed in transfected cells; host or cells: HEK293
Description: as §1, §2

T3 sequence (Q8CJ12 614-1009 M853A): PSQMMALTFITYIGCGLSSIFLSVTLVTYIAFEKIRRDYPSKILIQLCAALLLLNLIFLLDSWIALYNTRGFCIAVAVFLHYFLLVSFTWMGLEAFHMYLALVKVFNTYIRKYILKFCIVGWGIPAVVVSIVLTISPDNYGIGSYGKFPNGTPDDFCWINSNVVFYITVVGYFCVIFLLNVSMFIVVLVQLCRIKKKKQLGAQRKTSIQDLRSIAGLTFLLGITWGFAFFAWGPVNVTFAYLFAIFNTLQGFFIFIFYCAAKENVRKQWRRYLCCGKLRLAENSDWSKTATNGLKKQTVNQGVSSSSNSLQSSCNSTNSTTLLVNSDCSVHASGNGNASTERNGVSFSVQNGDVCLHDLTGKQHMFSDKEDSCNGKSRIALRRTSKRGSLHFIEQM
T12 sequence (Q8CJ12 614-1009 S774A): as the sequence (Q8CJ12 614-1009 M853A) above, with S161A, A240M counted along it
T1 sequence (Q8CJ12 614-1009 V782A): as the sequence (Q8CJ12 614-1009 M853A) above, with V169A, A240M counted along it
T11 sequence (Q8CJ12 614-1009 N773A): as the sequence (Q8CJ12 614-1009 M853A) above, with N160A, A240M counted along it
T7 sequence (Q8CJ12 614-1009 C628A): as the sequence (Q8CJ12 614-1009 M853A) above, with C15A, A240M counted along it
T9 sequence (Q8CJ12 614-1009 V848A): as the sequence (Q8CJ12 614-1009 M853A) above, with V235A, A240M counted along it
T5 sequence (Q8CJ12 614-1009 F859A limits assumed): as the sequence (Q8CJ12 614-1009 M853A) above, with A240M, F246A counted along it
T16 sequence (Q8CJ12 614-1009 I755A): as the sequence (Q8CJ12 614-1009 M853A) above, with I142A, A240M counted along it
T6 sequence (Q8CJ12 614-1009 F685A): as the sequence (Q8CJ12 614-1009 M853A) above, with F72A, A240M counted along it
T19 sequence (Q8CJ12 614-1009 F761A): as the sequence (Q8CJ12 614-1009 M853A) above, with F148A, A240M counted along it
T4 sequence (Q8CJ12 614-1009 F843A): as the sequence (Q8CJ12 614-1009 M853A) above, with F230A, A240M counted along it
T2 sequence (Q8CJ12 614-1009 V783A): as the sequence (Q8CJ12 614-1009 M853A) above, with V170A, A240M counted along it
T10 sequence (Q8CJ12 614-1009 V850A): as the sequence (Q8CJ12 614-1009 M853A) above, with V237A, A240M counted along it
T17 sequence (Q8CJ12 614-1009 F786A): as the sequence (Q8CJ12 614-1009 M853A) above, with F173A, A240M counted along it
T20 sequence (Q8CJ12 614-1009 L679A): as the sequence (Q8CJ12 614-1009 M853A) above, with L66A, A240M counted along it
T8 sequence (Q8CJ12 614-1009 L693A): as the sequence (Q8CJ12 614-1009 M853A) above, with L80A, A240M counted along it
T14 sequence (Q8CJ12 614-1009 I858A): as the sequence (Q8CJ12 614-1009 M853A) above, with A240M, I245A counted along it
T18 sequence (Q8CJ12 614-1009 V776A): as the sequence (Q8CJ12 614-1009 M853A) above, with V163A, A240M counted along it
T15 sequence (Q8CJ12 614-1009 W771A): as the sequence (Q8CJ12 614-1009 M853A) above, with W158A, A240M counted along it

- EC50 [1]: 7.39 µM
- EC50 [2]: 1.69 µM
- EC50 [3]: 1.72 µM
- EC50 [4]: 1.16 µM
- EC50 [5]: 3.21 µM
- EC50 [6]: 1.2 µM
- EC50 [7]: 2.17 µM
- EC50 [8]: 1.16 µM
- EC50 [9]: 1.14 µM
- EC50 [10]: 4.13 µM
- EC50 [11]: 4.76 µM
- EC50 [12]: 1.95 µM
- EC50 [13]: 1.07 µM
- EC50 [14]: 12.9 µM
- EC50 [15]: 14.2 µM
- EC50 [16]: 1.55 µM
- EC50 [17]: 2.19 µM
- EC50 [18]: 2.35 µM
- EC50 [19]: 1.13 µM
- EC50 [20]: 1.59 µM
SMILES: CC[C@H](C)[C@H](NC(=O)CNC(=O)[C@H](Cc1ccc(C)cc1)NC(=O)[C@H](CO)NC(=O)[C@@H](N)C(C)C)C(=O)N[C@@H](CC(C)C)C(=O)N[C@@H](CC(C)C)C(=O)N[C@@H](CC(=O)O)C(=O)N[C@@H](CC(C)C)C(=O)N[C@@H](CO)C(=O)N[C@@H](CCCNC(=N)N)C(=O)N[C@H](C(=O)N[C@@H](CO)C(=O)N[C@@H](CC(C)C)C(=O)N1CCC[C@H]1C(=O)O)[C@@H](C)O [VPM-p15] (H-VS[Phe(4-Me)]GILLDLSRTSLP-OH)
